The target of one experiment is T1, Human KLKB1 protein (Homo sapiens, UniProt P03952).
T1 construct: purchased Enzyme Research Labs
The experiment can be described thus: KLKB1 kallikrein protease inhibition assay (chromogenic substrate S-2302). It counts as biochemical. As to conditions: 3 nM KLKB1, 250 μM S-2302, 10 min pre-incubation, RT, read at 405 nm. As to the method: The KLKB1 kallikrein activity reported herein (e.g., Table A) was obtained as follows. Human KLKB1 protein was obtained from Enzyme Research Labs. The chromogenic substrate S-2302 was obtained from DiaPharma. KLKB1 was assayed in buffer containing 0.05 M Tris (pH 7.4), 0.01 M NaCl and 0.2% w/v PEG-8000. The final concentration of enzyme used was 3 nM KLKB1. The final concentration of substrate used was 250 μM S-2302 for KLKB1. All assays were performed in 96-well microtiter plates at room temperature (RT). […] The plate was read at 10 minutes after substrate addition. The IC50 was calculated by plotting the percent (%) inhibition against compound concentration and fitting the data to a constrained four parameter sigmoidal curve, as known in the art.

In the next experiment the target is T2, Human thrombin (Homo sapiens, UniProt P00734).
T2 construct: Thrombin (fIIa, the active form of prothrombin) is another serine protease; purchased Haematologic Technologies Inc
Nature of the experiment: thrombin protease inhibition assay (chromogenic substrate S-2238). It counts as biochemical. The settings on record: 3 nM thrombin, 125 μM S-2238, 10 min pre-incubation, RT, read at 405 nm. As for the experimental part: The thrombin activity reported herein (e.g., Table A) was obtained as follows. […] Thrombin was assayed in buffer containing 0.05 M Tris (pH 7.4), 0.015 M NaCl and 0.01% PEG-8000. The final concentration of enzyme used was 3 nM thrombin. […] All assays were performed in 96-well microtiter plates at room temperature (RT). […] Inhibitor IC50 values were determined by adding test compound as ten point, three-fold serial dilutions in buffer solution, as known in the art. The plate was read at 10 minutes after substrate addition. The IC50 was calculated by plotting the percent (%) inhibition against compound concentration and fitting the data to a constrained four parameter sigmoidal curve, as known in the art.

T1 sequence (P03952 391-638 limits assumed): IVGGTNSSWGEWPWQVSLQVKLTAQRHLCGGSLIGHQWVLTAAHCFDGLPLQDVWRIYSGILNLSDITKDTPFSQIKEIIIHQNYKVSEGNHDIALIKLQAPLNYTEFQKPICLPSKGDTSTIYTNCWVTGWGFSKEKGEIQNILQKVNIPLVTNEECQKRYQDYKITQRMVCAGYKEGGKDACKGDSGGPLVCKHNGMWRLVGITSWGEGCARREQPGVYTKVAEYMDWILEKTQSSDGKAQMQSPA
T1 sequence (P03952 20-390 partner limits assumed): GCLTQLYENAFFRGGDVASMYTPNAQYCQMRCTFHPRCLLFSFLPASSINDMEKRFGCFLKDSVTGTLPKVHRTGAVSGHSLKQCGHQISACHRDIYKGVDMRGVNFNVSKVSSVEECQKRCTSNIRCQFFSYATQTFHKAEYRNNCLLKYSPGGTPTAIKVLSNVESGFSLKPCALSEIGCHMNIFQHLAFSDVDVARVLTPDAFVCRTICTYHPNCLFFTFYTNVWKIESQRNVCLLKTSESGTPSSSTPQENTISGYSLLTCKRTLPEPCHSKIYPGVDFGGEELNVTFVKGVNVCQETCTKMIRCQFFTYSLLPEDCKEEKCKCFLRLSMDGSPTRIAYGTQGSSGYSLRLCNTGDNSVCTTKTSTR

Usually IC50 stands for the concentration at which inhibition is half-maximal. Read a high IC50 as a need for much substance. `CC(C)(C)C(=O)n1nc(-c2ccc(=O)n(CC(=O)N3CCOCC3)c2)cc1NCc1ccc(Cl)s1` [Entry 32, 5-(5-[(5-chlorothiophen-2-yl)methyl]amino-1-(2,2-dimethylpropanoyl)-1H-pyrazol-3-yl)-1-[2-(morpholin-4-yl)-2-oxoethyl]-1,2-dihydropyridin-2-one]: the IC50 against Human KLKB1 protein was over 100 µM.
Consider `Cc1c[nH]c(=O)c(-c2cc(NCc3ccc(Cl)s3)n(C(=O)c3ccoc3)n2)c1` [Entry 4, 3-(5-[(5-chlorothiophen-2-yl)methyl]amino-1-(furan-3-carbonyl)-1H-pyrazol-3-yl)-5-methyl-1,2-dihydropyridin-2-one], for which the IC50 on Human KLKB1 protein is 0.1 to 1 µM; on Human thrombin it was under 0.1 µM.
The corresponding values for `CC(C)(C)C(=O)n1nc(-c2c[nH]c(=O)c(-c3ccccc3)c2)cc1NCc1ccc(Cl)s1` [Entry 35, 5-(5-[(5-chlorothiophen-2-yl)methyl]amino-1-(2,2-dimethylpropanoyl)-1H-pyrazol-3-yl)-3-phenyl-1,2-dihydropyridin-2-one] are 10 to 100 µM and 1 to 10 µM.
The corresponding values for `O=C(c1ccsc1)n1nc(-c2ccn(Cc3ccccn3)c(=O)c2)cc1NCc1ccc(Cl)s1` [Entry 24, 4-(5-[(5-chlorothiophen-2-yl)methyl]amino-1-(thiophene-3-carbonyl)-1H-pyrazol-3-yl)-1-(pyridin-2-ylmethyl)-1,2-dihydropyridin-2-one] are under 0.1 µM and under 0.1 µM.
Take `CC(C)(C)C(=O)n1nc(-c2ccn(CC(=O)N3CCOCC3)c(=O)c2)cc1NCc1ccc(Cl)s1` [Entry 12, 4-(5-[(5-chlorothiophen-2-yl)methyl]amino-1-(2,2-dimethylpropanoyl)-1H-pyrazol-3-yl)-1-[2-(morpholin-4-yl)-2-oxoethyl]-1,2-dihydropyridin-2-one]: the IC50 against Human KLKB1 protein fell in the range of 10 to 100 µM.
Same read-out and setting: the same measure for `CC(C)(C)C(=O)n1nc(-c2cccc(=O)n2CC(=O)N2CCOCC2)cc1NCc1ccc(Cl)s1` [Entry 45, 6-(5-[(5-chlorothiophen-2-yl)methyl]amino-1-(2,2-dimethylpropanoyl)-1H-pyrazol-3-yl)-1-[2-(morpholin-4-yl)-2-oxoethyl]-1,2-dihydropyridin-2-one]: over 100 µM.
`O=C(Cn1ccc(-c2cc(NCc3ccc(Cl)s3)n(C(=O)c3ccsc3)n2)cc1=O)N1CCOCC1` [Entry 26, 4-(5-[(5-chlorothiophen-2-yl)methyl]amino-1-(thiophene-3-carbonyl)-1H-pyrazol-3-yl)-1-[2-(morpholin-4-yl)-2-oxoethyl]-1,2-dihydropyridin-2-one]: the IC50 at Human KLKB1 protein is 1 to 10 µM; on Human thrombin, 0.1 to 1 µM.
Take `CC(C)(C)C(=O)n1nc(-c2ccn(Cc3ccccn3)c(=O)c2)cc1NCc1ccc(Cl)s1` [Entry 10, 4-(5-[(5-chlorothiophen-2-yl)methyl]amino-1-(2,2-dimethylpropanoyl)-1H-pyrazol-3-yl)-1-(pyridin-2-ylmethyl)-1,2-dihydropyridin-2-one]: the values for the IC50 on Human KLKB1 protein and at Human thrombin were 1 to 10 µM and under 0.1 µM, respectively.
Take `O=c1[nH]cc(-c2cc(NCc3ccc(Cl)s3)[nH]n2)cc1Br` [Entry 6, 3-bromo-5-(5-[(5-chlorothiophen-2-yl)methyl]amino-1H-pyrazol-3-yl)-1,2-dihydropyridin-2-one]: the IC50 at Human KLKB1 protein and against Human thrombin was over 100 µM each time.
For `O=C(c1ccoc1)n1nc(-c2ccn(Cc3ccccn3)c(=O)c2)cc1NCc1ccc(Cl)s1` [Entry 18, 4-(5-[(5-chlorothiophen-2-yl)methyl]amino-1-(furan-3-carbonyl)-1H-pyrazol-3-yl)-1-(pyridin-2-ylmethyl)-1,2-dihydropyridin-2-one], the half-inhibitory concentration (IC50) at Human KLKB1 protein is 0.1 to 1 µM; against Human thrombin, under 0.1 µM.
`O=c1cc(-c2cc(NCc3ccc(Cl)s3)[nH]n2)ccn1Cc1cccnc1` [Entry 30, 4-(5-[(5-chlorothiophen-2-yl)methyl]amino-1H-pyrazol-3-yl)-1-(pyridin-3-ylmethyl)-1,2-dihydropyridin-2-one]: the IC50 against Human KLKB1 protein and against Human thrombin was over 100 µM throughout.
`CC(C)(C)C(=O)n1nc(-c2cc(Br)c[nH]c2=O)cc1NCc1ccc(Cl)s1` [Entry 39, 5-bromo-3-(5-[(5-chlorothiophen-2-yl)methyl]amino-1-(2,2-dimethylpropanoyl)-1H-pyrazol-3-yl)-1,2-dihydropyridin-2-one]: the IC50 was 10 to 100 µM against Human KLKB1 protein and under 0.1 µM against Human thrombin.
The corresponding values for `COCCn1ccc(-c2cc(NCc3ccc(Cl)s3)n(C(=O)C(C)(C)C)n2)cc1=O` [Entry 9, 4-(5-[(5-chlorothiophen-2-yl)methyl]amino-1-(2,2-dimethylpropanoyl)-1H-pyrazol-3-yl)-1-(2-methoxyethyl)-1,2-dihydropyridin-2-one] are 1 to 10 µM and under 0.1 µM.
The corresponding values for `O=c1[nH]cc(Br)cc1-c1cc(NCc2ccc(Cl)s2)[nH]n1` [Entry 42, 5-bromo-3-(5-[(5-chlorothiophen-2-yl)methyl]amino-1H-pyrazol-3-yl)-1,2-dihydropyridin-2-one] are 10 to 100 µM and over 100 µM.
For `O=C(c1ccoc1)n1nc(-c2ccn(Cc3cccnc3)c(=O)c2)cc1NCc1ccc(Cl)s1` [Entry 19, 4-(5-[(5-chlorothiophen-2-yl)methyl]amino-1-(furan-3-carbonyl)-1H-pyrazol-3-yl)-1-(pyridin-3-ylmethyl)-1,2-dihydropyridin-2-one], the IC50 against Human KLKB1 protein and on Human thrombin was under 0.1 µM each time.
As to `COCCn1ccc(-c2cc(NCc3ccc(Cl)s3)n(C(=O)c3ccsc3)n2)cc1=O` [Entry 23, 4-(5-[(5-chlorothiophen-2-yl)methyl]amino-1-(thiophene-3-carbonyl)-1H-pyrazol-3-yl)-1-(2-methoxyethyl)-1,2-dihydropyridin-2-one], the IC50 was 0.1 to 1 µM against Human KLKB1 protein and under 0.1 µM against Human thrombin.
The corresponding values for `C=Cc1ccc(-c2cc(NCc3ccc(Cl)s3)n(C(=O)C(C)(C)C)n2)[nH]c1=O` [Entry 46, 6-(5-[(5-chlorothiophen-2-yl)methyl]amino-1-(2,2-dimethylpropanoyl)-1H-pyrazol-3-yl)-3-ethenyl-1,2-dihydropyridin-2-one] are 10 to 100 µM and under 0.1 µM.
`CC(C)(C)C(=O)n1nc(-c2ccc(=O)[nH]c2)cc1NCc1ccc(Cl)s1` [Entry 31, 5-(5-[(5-chlorothiophen-2-yl)methyl]amino-1-(2,2-dimethylpropanoyl)-1H-pyrazol-3-yl)-1,2-dihydropyridin-2-one]: at Human KLKB1 protein, the IC50 is 10 to 100 µM.
In the case of `O=C(c1ccsc1)n1nc(-c2cc[nH]c(=O)c2)cc1NCc1ccc(Cl)s1` [Entry 22, 4-(5-[(5-chlorothiophen-2-yl)methyl]amino-1-(thiophene-3-carbonyl)-1H-pyrazol-3-yl)-1,2-dihydropyridin-2-one], the IC50 against Human KLKB1 protein is 0.1 to 1 µM; on Human thrombin it was under 0.1 µM.
`CC(C)(C)C(=O)n1nc(-c2cccc(=O)n2Cc2ccccn2)cc1NCc1ccc(Cl)s1` [Entry 44, 6-(5-[(5-chlorothiophen-2-yl)methyl]amino-1-(2,2-dimethylpropanoyl)-1H-pyrazol-3-yl)-1-(pyridin-2-ylmethyl)-1,2-dihydropyridin-2-one] had an IC50 at Human KLKB1 protein of over 100 µM.
Compound `CC(C)(C)C(=O)n1nc(-c2cccc(=O)[nH]2)cc1NCc1ccc(Cl)s1` [Entry 43, 6-(5-[(5-chlorothiophen-2-yl)methyl]amino-1-(2,2-dimethylpropanoyl)-1H-pyrazol-3-yl)-1,2-dihydropyridin-2-one] showed an IC50 on Human KLKB1 protein of 1 to 10 µM.
